For 13 compounds, inhibition results are on record in patent US9458120B2, “Phenoxypropanol derivative and pharmaceutical composition including the same” (KOREA INSTITUTE OF SCIENCE AND TECHNOLOGY, priority 2011, dated 2016).

One experiment has as its target T1, TREK-1 channel (Rattus norvegicus, UniProt Q920B6).
T1 construct: expressed in transfected cells; host or cells: COS7 (Korean Cell Line Bank), transient transfection with Effectene
T1 sequence (Q920B6 1-426): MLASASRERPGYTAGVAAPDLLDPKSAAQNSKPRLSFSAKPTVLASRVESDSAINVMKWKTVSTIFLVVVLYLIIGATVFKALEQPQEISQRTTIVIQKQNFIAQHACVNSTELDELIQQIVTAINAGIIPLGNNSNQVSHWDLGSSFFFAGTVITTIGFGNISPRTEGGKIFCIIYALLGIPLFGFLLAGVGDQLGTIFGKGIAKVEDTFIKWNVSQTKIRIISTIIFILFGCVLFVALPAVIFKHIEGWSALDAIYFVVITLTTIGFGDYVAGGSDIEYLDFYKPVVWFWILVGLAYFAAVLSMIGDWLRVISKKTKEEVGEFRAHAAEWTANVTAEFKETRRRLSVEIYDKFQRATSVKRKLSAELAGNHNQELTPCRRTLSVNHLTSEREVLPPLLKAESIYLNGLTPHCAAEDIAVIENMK
Nature of the experiment: Assay for TREK channel inhibition activity (whole cell patch clamp recording, COS7 cell transfected with GFP-rTREK-1). The experiment is classed as cell-based. Conditions: COS-7, Table 3 (value ± spread); 101 μM [sic]; COS7 cells, GFP-rTREK-1, whole-cell patch clamp; read-out: block % at 101 μM. In outline: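 Whole-cell patch clamp was run on COS7 cells 24 h after transfection with GFP-rTREK-1, held at −70 mV, using a 1 s ramp from −100 to +100 mV. Current was taken as the difference between +100 and −100 mV values. Block % = 100 − (current after/before blocker) × 100.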
In general terms: The patch-clamp technique gives a direct electrical read-out from membranes.

Experiment [1] has as its target α1G T-type calcium channel (Homo sapiens, UniProt O43497). Nature of the experiment: Assay for T-type calcium channel inhibition activity (FDSS6000 calcium imaging, KCl activation). The experiment is classed as cell-based. Conditions: 75 s pre-treatment then KCl 75 mM, HEK293 cells expressing α1G T-type calcium channel and Kir2.1.

α1G T-type calcium channel, sequence (O43497 whole entry): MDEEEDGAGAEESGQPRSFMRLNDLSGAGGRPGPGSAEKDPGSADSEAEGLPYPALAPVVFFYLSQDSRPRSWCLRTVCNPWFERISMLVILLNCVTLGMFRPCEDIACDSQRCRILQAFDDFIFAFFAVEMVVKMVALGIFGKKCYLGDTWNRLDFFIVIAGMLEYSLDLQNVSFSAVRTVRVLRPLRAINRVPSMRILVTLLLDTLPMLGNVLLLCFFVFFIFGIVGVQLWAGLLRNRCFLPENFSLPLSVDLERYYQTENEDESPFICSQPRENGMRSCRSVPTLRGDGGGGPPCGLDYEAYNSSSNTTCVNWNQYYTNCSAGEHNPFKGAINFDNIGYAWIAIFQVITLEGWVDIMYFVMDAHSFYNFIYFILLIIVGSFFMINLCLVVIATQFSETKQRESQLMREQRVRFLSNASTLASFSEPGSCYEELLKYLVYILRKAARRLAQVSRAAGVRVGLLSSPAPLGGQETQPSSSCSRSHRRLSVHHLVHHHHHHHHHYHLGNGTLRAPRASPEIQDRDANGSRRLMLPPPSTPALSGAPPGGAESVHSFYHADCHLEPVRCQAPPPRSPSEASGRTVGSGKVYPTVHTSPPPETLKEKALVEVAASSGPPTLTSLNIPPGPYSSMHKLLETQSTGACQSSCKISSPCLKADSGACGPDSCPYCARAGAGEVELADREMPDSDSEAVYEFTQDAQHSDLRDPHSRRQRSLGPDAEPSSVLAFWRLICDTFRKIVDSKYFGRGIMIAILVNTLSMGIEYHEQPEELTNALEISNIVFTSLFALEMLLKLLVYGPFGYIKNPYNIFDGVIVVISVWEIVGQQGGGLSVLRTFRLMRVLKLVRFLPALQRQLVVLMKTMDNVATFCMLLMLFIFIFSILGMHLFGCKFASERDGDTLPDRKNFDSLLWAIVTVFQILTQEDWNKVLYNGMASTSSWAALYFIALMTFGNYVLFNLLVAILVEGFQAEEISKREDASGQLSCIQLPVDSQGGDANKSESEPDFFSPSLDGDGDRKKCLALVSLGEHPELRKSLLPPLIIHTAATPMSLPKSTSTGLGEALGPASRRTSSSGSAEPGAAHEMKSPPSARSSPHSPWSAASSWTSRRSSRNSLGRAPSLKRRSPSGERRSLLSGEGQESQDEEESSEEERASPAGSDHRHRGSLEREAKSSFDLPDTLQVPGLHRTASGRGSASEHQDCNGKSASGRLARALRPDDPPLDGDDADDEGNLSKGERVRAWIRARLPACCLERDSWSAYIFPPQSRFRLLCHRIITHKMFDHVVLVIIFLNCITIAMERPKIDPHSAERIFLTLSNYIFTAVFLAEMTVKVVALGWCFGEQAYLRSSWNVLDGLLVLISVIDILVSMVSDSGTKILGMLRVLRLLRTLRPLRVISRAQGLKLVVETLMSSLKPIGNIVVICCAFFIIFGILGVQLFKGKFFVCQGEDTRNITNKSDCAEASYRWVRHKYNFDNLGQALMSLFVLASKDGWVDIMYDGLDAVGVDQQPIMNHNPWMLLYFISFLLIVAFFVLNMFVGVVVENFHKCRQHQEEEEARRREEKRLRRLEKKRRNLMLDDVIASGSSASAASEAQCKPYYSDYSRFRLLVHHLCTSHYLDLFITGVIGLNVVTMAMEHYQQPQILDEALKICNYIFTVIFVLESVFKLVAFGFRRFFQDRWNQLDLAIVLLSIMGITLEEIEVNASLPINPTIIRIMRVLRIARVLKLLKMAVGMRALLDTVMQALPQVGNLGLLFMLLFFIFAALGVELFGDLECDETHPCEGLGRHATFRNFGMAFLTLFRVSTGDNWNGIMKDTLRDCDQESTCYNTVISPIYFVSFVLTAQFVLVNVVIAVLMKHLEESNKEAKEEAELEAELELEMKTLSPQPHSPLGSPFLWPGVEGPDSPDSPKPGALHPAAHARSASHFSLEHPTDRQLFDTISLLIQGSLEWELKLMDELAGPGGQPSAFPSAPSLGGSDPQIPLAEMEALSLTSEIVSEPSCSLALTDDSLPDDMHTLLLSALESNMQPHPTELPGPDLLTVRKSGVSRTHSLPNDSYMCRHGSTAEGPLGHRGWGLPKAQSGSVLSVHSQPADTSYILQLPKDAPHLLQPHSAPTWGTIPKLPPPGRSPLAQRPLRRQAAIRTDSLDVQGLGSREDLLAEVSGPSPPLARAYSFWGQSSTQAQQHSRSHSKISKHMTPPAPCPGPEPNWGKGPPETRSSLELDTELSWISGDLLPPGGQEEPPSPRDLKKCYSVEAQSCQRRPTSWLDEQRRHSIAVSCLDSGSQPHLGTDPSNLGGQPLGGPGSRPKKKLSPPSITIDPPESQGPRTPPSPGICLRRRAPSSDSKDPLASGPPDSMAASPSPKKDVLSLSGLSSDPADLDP

For the compound `CC(C)Cc1cc(CNC(=O)CN2CCN(C[C@@H](O)COc3ccc(C(F)(F)F)cc3)CC2)nn1-c1cc(Cl)cc(Cl)c1` [KKRE10218, (R)-N-((1-(3,5-dichlorophenyl)-5-isobutyl-1H-pyrazol-3-yl)methyl)-2-(4-(2-hydroxy-3-(4-(trifluoromethyl)phenoxy)propyl)piperazin-1-yl)acetamide], the inhibition at 101 µM on TREK-1 channel was determined as 76.1 ± 5.79%. Also, the inhibition in experiment [1] was 73.5%.

In the case of `CC(C)Cc1cc(CNC(=O)CN2CCN(C[C@H](O)COc3ccc(C(F)(F)F)cc3)CC2)nn1-c1ccc(F)cc1` [KKRE10219, (S)-N-((1-(4-fluorophenyl)-5-isobutyl-1H-pyrazol-3-yl)methyl)-2-(4-(2-hydroxy-3-(4-(trifluoromethyl)phenoxy)propyl)piperazin-1-yl)acetamide], on TREK-1 channel, the inhibition at 101 µM is 57 ± 6.08%. In experiment [1], the inhibition turned out to be 74.1%.

For `CC(C)Cc1cc(CNC(=O)CN2CCN(C[C@H](O)COc3ccc(C(F)(F)F)cc3)CC2)nn1-c1cc(Cl)cc(Cl)c1` [KKRE10220, (S)-N-((1-(3,5-dichlorophenyl)-5-isobutyl-1H-pyrazol-3-yl)methyl)-2-(4-(2-hydroxy-3-(4-(trifluoromethyl)phenoxy)propyl)piperazin-1-yl)acetamide], on TREK-1 channel, the inhibition at 101 µM came to 41.4 ± 12.7%. Also, the inhibition in experiment [1] was 35.8%.

As to `Cc1ccc(F)cc1-n1nc(CNC(=O)CN2CCN(C[C@H](O)COc3ccc(C(F)(F)F)cc3)CC2)cc1CC(C)C` [KKRE10221, (S)-N-((1-(5-fluoro-2-methylphenyl)-5-isobutyl-1H-pyrazol-3-yl)methyl)-2-(4-(2-hydroxy-3-(4-(trifluoromethyl)phenoxy)propyl)piperazin-1-yl)acetamide], the inhibition at 101 µM on TREK-1 channel was determined as 83.1 ± 4.99%. Besides, the inhibition in experiment [1] came to 68.9%.

On to `Cc1ccccc1-n1nc(CNC(=O)CN2CCN(C[C@H](O)COc3ccc(C(F)(F)F)cc3)CC2)cc1CC(C)C` [KKRE10222, (S)-2-(4-(2-Hydroxy-3-(4-(trifluoromethyl)phenoxy)propyl)piperazin-1-yl)-N-((5-isobutyl-1-o-tolyl-1H-pyrazol-3-yl)methyl)acetamide], for which the inhibition at 101 µM on TREK-1 channel worked out at 51.2 ± 12.5%. For the same compound, the inhibition in experiment [1] amounted to 79.2%.

Turning to `CC(C)Cc1cc(CNC(=O)CN2CCN(C[C@@H](O)COc3ccc(F)cc3)CC2)nn1-c1cc(Cl)cc(Cl)c1` [KKRE10223, (R)-N-((1-(3,5-Dichlorophenyl)-5-isobutyl-1H-pyrazol-3-yl)methyl)-2-(4-(3-(4-fluorophenoxy)-2-hydroxypropyl)piperazin-1-yl)acetamide], the inhibition at 101 µM on TREK-1 channel was found to be 87.6 ± 2.43%. The inhibition in experiment [1] was determined as 63.4%.

On to `Cc1ccc(F)cc1-n1nc(CNC(=O)CN2CCN(C[C@@H](O)COc3ccc(F)cc3)CC2)cc1CC(C)C` [KKRE10224, (R)-N-((1-(5-Fluoro-2-methylphenyl)-5-isobutyl-1H-pyrazol-3-yl)methyl)-2-(4-(3-(4-fluorophenoxy)-2-hydroxypropyl)piperazin-1-yl)acetamide], for which, at TREK-1 channel, the inhibition at 101 µM was found to be 45.1 ± 3.6%. The inhibition in experiment [1] turned out to be 77.8%.

For `Cc1ccccc1-n1nc(CNC(=O)CN2CCN(C[C@@H](O)COc3ccc(F)cc3)CC2)cc1CC(C)C` [KKRE10225, (R)-2-(4-(3-(4-Fluorophenoxy)-2-hydroxypropyl)piperazin-1-yl)-N-((5-isobutyl-1-o-tolyl-1H-pyrazol-3-yl)methyl)acetamide], the inhibition at 101 µM at TREK-1 channel was 13.1 ± 6.19%. Further, the inhibition in experiment [1] was 81.1%.

With `CC(C)Cc1cc(CNC(=O)CN2CCN(C[C@@H](O)COc3ccc(F)cc3)CC2)nn1-c1ccc(F)cc1` [KKRE10226, (R)-2-(4-(3-(4-Fluorophenoxy)-2-hydroxypropyl)piperazin-1-yl)-N-((1-(4-fluorophenyl)-5-isobutyl-1H-pyrazol-3-yl)methyl)acetamide], the inhibition at 101 µM on TREK-1 channel came to 18.8 ± 7.78%. Also, the inhibition in experiment [1] amounted to 78.8%.

Turning to `Cc1ccccc1-n1nc(CNC(=O)CN2CCN(C[C@H](O)COc3ccc(F)cc3)CC2)cc1CC(C)C` [KKRE10227, (S)-2-(4-(3-(4-Fluorophenoxy)-2-hydroxypropyl)piperazin-1-yl)-N-((5-isobutyl-1-o-tolyl-1H-pyrazol-3-yl)methyl)acetamide], the inhibition at 101 µM at TREK-1 channel worked out at 69.8 ± 4.78%. Further, in experiment [1], the inhibition worked out at 74.7%.

On to `CC(C)Cc1cc(CNC(=O)CN2CCN(C[C@H](O)COc3ccc(F)cc3)CC2)nn1-c1ccc(F)cc1` [KKRE10228, (S)-2-(4-(3-(4-Fluorophenoxy)-2-hydroxypropyl)piperazin-1-yl)-N-((1-(4-fluorophenyl)-5-isobutyl-1H-pyrazol-3-yl)methyl)acetamide], for which, at TREK-1 channel, the inhibition at 101 µM stood at 58.6 ± 4.35%. For the same compound, in experiment [1], the inhibition is 73.2%.

Consider `Cc1ccc(F)cc1-n1nc(CNC(=O)CN2CCN(C[C@H](O)COc3ccc(F)cc3)CC2)cc1CC(C)C` [KKRE10229, (S)-N-((1-(5-Fluoro-2-methylphenyl)-5-isobutyl-1H-pyrazol-3-yl)methyl)-2-(4-(3-(4-fluorophenoxy)-2-hydroxypropyl)piperazin-1-yl)acetamide], for which, on TREK-1 channel, the inhibition at 101 µM came out at 74.1 ± 2.75%. For the same compound, the inhibition in experiment [1] stood at 77.6%.

Regarding `CC(C)Cc1cc(CNC(=O)CN2CCN(C[C@H](O)COc3ccc(F)cc3)CC2)nn1-c1cc(Cl)cc(Cl)c1` [KKRE10230, (S)-N-((1-(3,5-Dichlorophenyl)-5-isobutyl-1H-pyrazol-3-yl)methyl)-2-(4-(3-(4-fluorophenoxy)-2-hydroxypropyl)piperazin-1-yl)acetamide], the inhibition at 101 µM at TREK-1 channel came out at 78.1 ± 2.95%. In addition, the inhibition in experiment [1] worked out at 60%.
